Results as given in US20110111400A1, “METHOD FOR ENHANCING CHEMICAL SENSITIVITY OR RADIOSENSITIVITY OF CANCER CELLS BY INHIBITING EXPRESSION OF TSPYL5” (Korea Atomic Energy Research Institute, priority 2009, published 2011).

What was measured:
[1] = test system: TSPYL5 gene; test: RT-PCR of TSPYL5 expression level after siRNA transduction, H1299; assay type: cell-based, human; conditions: H1299 cells, 40~80 nM RNAi, compared to siControl
Protocol: (§1) In order to compare the expression levels of TSPYL5 in lung cancer cell lines A549, H460, and H1299, reverse transcription polymerase chain reaction (RT-PCR) was performed. The RT-PCR was performed in the following manner: a mixture of 10 mM dNTPs, 5×RT buffer, 0.5 μg/μl oligo dT, addition of each of 4 μg of heat denaturated (70° C., 10 min) total RNA of lung cancer cell lines H460, A549, and H1299, and 200 U/μl M-MLV RTase, 0.02% diethyl pyrocarbonate (DEPC)-treated sterilized water to a final volume of 20 μl, followed by reaction at 45° C. for 30 min. Next, the mixture was heated to 94° C. for 5 min, and then snap-cooled on ice to deactivate the M-MLV RTase. 1 μl of the cDNA synthesized by the method was mixed with 10× buffer (MgCl2 free), 2.5 mM dNTPs, 10× MgCl2, and Taq DNA polymerase. 10 pmol of primer for TSPYL5 or β-actin was added to the mixture and amplified under the following conditions. Then, for TSPYL5 primer, EcoRI/Forward: 5′-[…]-3′ represented by SEQ ID No: 3 as a forward primer and EcoRI/reverse: 5′-CCGGAATTCTC AGTTGGATTGGCTCACCCC-3′ represented by SEQ ID NO: 4 as a reverse primer were used. Pre-denaturation at 94° C. for 5 min, denaturation at 94° C. for 1 min, annealing at 60° C. for 1.5 min, cycles of elongation at 72° C. for 1 min were performed, followed by post-elongation at 72° C. for 10 min. […]

[2] = test system: TSPYL5 gene; test: RT-PCR of TSPYL5 expression level after siRNA transduction, A549; assay type: cell-based, human; conditions: A549 cells, 40~80 nM RNAi, compared to siControl
Protocol: as §1

Substance: C2-131714: 25mer TSPYL5 stealth-RNAi duplex oligoribonucleotide, SEQ ID Nos: 10 and 11 (chain 1 AAAGGUAGAACUGCAAGGGAUUGGG; chain 2 CCCAAUCCCUUGCAGUUCUACCUUU; Invitrogen Stealth RNAi, modifications not given here)
- expression levels of TSPYL5 [1]: reduced the most effectively
- expression levels of TSPYL5 [2]: reduced the most effectively
